Test results published in US20070110817A1, “Biological active blood serum obtained by electrostimulation” (Owen Holding Ltd., priority 2004, published 2007).

Test system: rats
Assay: Escape reaction latency after zytisin with or without serum
Assay type: in vivo, rat
Experimental: During the formation and the long-term maintenance of information a significant role is attributed to H-cholino-ceptive mechanisms. 30 animals who were taught for five days how to dive under a “bell” were subdivided into three groups.
A physiological solution of zytisin (a H-cholino-ceptive antagonist of the brain) was injected with a dose of 1 mg/kg body weight into the peritoneal cavity 30 minutes prior to the test of the animals of the first group (ten rats).
Biologically active serum was administered in a dose of 100 mg/kg body weight to the animals of the second group (ten rats) and 30 minutes later a zytisin solution was administered with a dose of 1 mg/kg body weight.
The third animal group (control—ten rats) received a 1 ml injection of a physiological salt solution.
The complex behaviour of the animals was tested according to above-indicated method 48 hours after the injection of the indicated substances.

O=c1cccc2n1C[C@@H]1CNC[C@H]2C1 [zytisin]
slowing of the “escape reaction” in comparison to control animals (48 hours after zytisin 1 mg/kg): 3 fold | Latency period for the reaction of rats to the situation (after 48 h, zytisin 1 mg/kg, serum 100 mg/kg 30 minutes before zytisin, control 13.33 ± 0.58): 40.0 ± 14 s
